Values quoted from earlier work as cited in patent publication US6346251B1 (priority 1999, dated 2002).

Tests used:
[1] = system: cancer; conditions: Phase II testing
[2] = system: human epidermoid cells, virally infected with HSV-2
[3] = system: human epidermoid cells

SMILES: CC(=O)OC[C@]12CCC(C)=C[C@H]1O[C@@H]1[C@H](O)[C@@H](OC(C)=O)[C@@]2(C)[C@]12CO2 [Anguidine]
- hematologic toxicity [1]: considerable hematologic toxicity
- tumor response [1]: low tumor response

SMILES: CC(=O)OC[C@]12CCC(C)=C[C@H]1O[C@@H]1[C@H](O)[C@@H](OC(C)=O)[C@@]2(C)[C@]12CO2 [DAS]
- Trichothecene Concentrations, Protein Synthesis Inhibition 50% [2]: 2.3 ng/mL
- Trichothecene Concentrations, Protein Synthesis Inhibition 80% (PIC80) [2]: 4.0 ng/mL
- Trichothecene Concentrations, Protein Synthesis Inhibition 85% (PIC85) [2]: 4.2 ng/mL
- Trichothecene Concentrations, Protein Synthesis Inhibition 90% (PIC90) [2]: 4.5 ng/mL
- hyperactive protein synthesis inhibited [2]: ~99%
- Trichothecene Concentrations, PIC100 max [3]: 200 ng/mL
- concentrations that did not reduce cell viability [3]: up to 200 ng/ml
- nontoxic zone [3]: < 200 ng/mL
- safe level [3]: 200 ng/mL
